From patent publication US20200223889A1, “Bicyclic Compounds Capable of Binding to Melanocortin 4 Receptor” (Novo Nordisk A/S, priority 2017, published 2020) come the findings set out here.

Each structure is given as a SMILES string. Where two headings read alike, the source gives them in different places. Positions of bridges follow the written chain, without caps; N, C: chain ends. Non-standard residues stand in square brackets, D forms with d. Residues, ends and D or L forms follow the SMILES beside them. Hyp = O=C(O)[C@@H]1C[C@@H](O)CN1; Thz = O=C(O)[C@@H]1CSCN1; Aib = CC(C)(N)C(=O)O Bounds are passed on as bounds.

The target in assay [1] is T1, human MC4R (Homo sapiens, UniProt P32245).
T1 construct: expressed in transfected cells
T1 sequence (P32245 whole entry): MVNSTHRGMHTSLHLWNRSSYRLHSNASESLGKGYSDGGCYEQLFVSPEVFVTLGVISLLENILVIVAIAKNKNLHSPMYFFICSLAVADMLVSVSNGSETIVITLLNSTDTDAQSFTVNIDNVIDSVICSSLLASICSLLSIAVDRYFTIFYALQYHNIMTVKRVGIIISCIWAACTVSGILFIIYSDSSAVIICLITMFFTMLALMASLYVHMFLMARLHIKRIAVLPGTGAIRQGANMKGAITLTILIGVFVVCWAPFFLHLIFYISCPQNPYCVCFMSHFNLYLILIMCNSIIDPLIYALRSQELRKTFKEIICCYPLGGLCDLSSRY
The assay is described as follows: 125NDP-α-MSH competitive binding to membranes of BHK cells expressing human MC4 receptor (filtration assay). The gist of the method: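 Displacement of ^125NDP-α-MSH (apx. […] final) was measured by filtration after 2 h at 25 °C, using diluted membranes of stably transfected BHK cells in pH 7.0 HEPES buffer. Compounds spanned 1 μM to 0.001 nM; binding curves were analysed by non-linear regression.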

Assay [2] addresses T1, human MC4R. Put plainly: Functional cAMP assay (CisBio HTRF) in BHK cells expressing human MC4R. The assay is classed as cell-based. Conditions: for MC1R/MC4R cAMP EC50 ratio: MC1R cAMP EC50 divided by MC4R cAMP EC50. The method, boiled down: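 Compound working solutions, 10-fold dilutions from 2 μM at twice final strength, in buffer containing 1 mM IBMX, were incubated 30 min at 25 °C with BHK cells stably carrying human MC4R or MC1R. Accumulated cAMP was then detected by competitive HTRF after 1 h at 25 °C and fitted by non-linear regression.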
For orientation: cAMP levels reflect the balance of adenylyl cyclase and phosphodiesterase activity.

The next assay concerns the target T2, human MC1R (Homo sapiens, UniProt Q01726).
T2 construct: expressed in transfected cells
Put plainly: Functional cAMP assay (CisBio HTRF) in BHK cells expressing human MC1R. Format: cell-based. Here is the method: In order to assess the potency of the compounds on human MC1R and human MC4R cAMP signalling was measured.
cAMP induction was measured by c-AMPdynamic2 assay, HTRF 62AM4PEC system from CisBio for the human MC1R and human MC4R according to the protocol provided by the vendor. BHK cells expressing the human MC1 or MC4 receptor were generated by stable transfection with expression vectors encoding the cDNA of either MC1R or MC4R.
In details; 25 μl compound—or standard solution were added in the respective wells. Compound was reconstituted in buffer (DMEM w/o phenol red, 10 mM
Hepes, lx Glutamine, 0.1% OV-albumin1, 1 mM IBMX) and serially diluted starting at 2 μM, 10-fold seven times. Dilutions were carried out in the same aforementioned buffer to the desired working concentration ranges (2× higher than the final concentration). 25 μl cell solution was then added and allowed to incubate for 30 min while lightly shaking, at 25° C. […] The provided components for the assay were reconstituted according to the CisBio assay protocol “3.1 supplied reagents and preparation procedure” in MilliQ purification system H2O and diluted 1:20 in lysis buffer. 25 μl cAMP-d2 and 25 μl Cryptate conjugate were added to all wells.
Plates were centrifuged at 1500 rpm for 30 sec and incubated for 1 h, lightly shaking, at 25° C. in a hotel stacker. The plates were read on Mithras LB 940 provided by Berthold Technologies The data were analysed by non-linear regression analysis of binding curves, using the Windows™ program GraphPad™ Prism (GraphPad Software, USA).
The latter is used when no full curve can be obtained in the concentration ranges indicated above.

The mark [3] stands for this setting: human MC4R, BHK cell membranes, 125NDP-α-MSH radioligand, read-out: MC4R binding Ki.
[4] abbreviates: BHK cells expressing human MC4R, '>' = highest dose used with no response, read-out: MC4R cAMP EC50.
Setting [5] is: BHK cells expressing human MC1R, '>' = highest dose used with no response, read-out: MC1R cAMP EC50.

T2 sequence (Q01726 whole entry): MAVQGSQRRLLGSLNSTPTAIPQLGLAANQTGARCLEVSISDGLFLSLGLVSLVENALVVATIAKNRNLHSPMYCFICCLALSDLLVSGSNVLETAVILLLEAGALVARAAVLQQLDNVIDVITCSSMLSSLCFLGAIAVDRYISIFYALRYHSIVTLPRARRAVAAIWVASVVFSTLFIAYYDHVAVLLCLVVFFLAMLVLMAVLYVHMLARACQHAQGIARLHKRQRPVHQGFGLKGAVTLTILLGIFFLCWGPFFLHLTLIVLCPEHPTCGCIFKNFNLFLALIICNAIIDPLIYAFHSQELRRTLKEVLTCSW

The Ki is the equilibrium dissociation constant of an inhibitor or competing ligand from its target. The EC50 is the concentration giving half of the maximal effect. With `CC1(C)NC(=O)[C@@H]2CSSC[C@H](NC(=O)[C@H](Cc3c[nH]c4ccccc34)NC(=O)[C@H](CCCNC(=N)N)NC(=O)[C@@H](Cc3ccccc3)NC(=O)[C@@H]3C[C@@H](O)CN3C1=O)C(=O)NC(C)(C)C(=O)N1C[C@H](O)C[C@H]1C(=O)N[C@H](Cc1ccccc1)C(=O)N[C@@H](CCCNC(=N)N)C(=O)N[C@@H](Cc1c[nH]c3ccccc13)C(=O)N2` [Chem. 38, c[c[Cys-Aib-Hyp-D-Phe-Arg-Trp- Cys]-Aib-Hyp-D-Phe-Arg-Trp]] (cyclo([Aib][Hyp][dF]RWC[Aib][Hyp][dF]RWC); disulfide 6-12), the inhibition constant (Ki) at human MC4R [1] (setting [3]) came to 5.64 nM. Further, the figures for the EC50 at human MC4R [2] (setting [4]) and on human MC1R (setting [5]) were 4.22 nM and > 3.7 nM, respectively.
For `N=C(N)NCCC[C@@H]1NC(=O)[C@@H](Cc2ccccc2)NC(=O)[C@H](Cc2c[nH]cn2)NC(=O)[C@H]2CCCN2C(=O)[C@@H]2CSSC[C@H](NC(=O)[C@H](Cc3c[nH]c4ccccc34)NC1=O)C(=O)N1CCC[C@@H]1C(=O)N[C@@H](Cc1c[nH]cn1)C(=O)N[C@H](Cc1ccccc1)C(=O)N[C@@H](CCCNC(=N)N)C(=O)N[C@@H](Cc1c[nH]c3ccccc13)C(=O)N2` [Chem. 33, c[c[Cys-D-Pro-His-D-Phe-Arg-Trp- Cys]-D-Pro-His-D-Phe-Arg-Trp]] (cyclo(C[dP]H[dF]RWC[dP]H[dF]RW); disulfide 1-7) the same measures were 27.8 nM, 19.8 nM and > 1 nM.
At human MC4R [1], `C[C@@H]1NC(=O)[C@H](C)NC(=O)[C@H](C)NC(=O)[C@@H]2CSSC[C@H](NC(=O)[C@H](Cc3c[nH]c4ccccc34)NC(=O)[C@H](C)NC1=O)C(=O)N[C@@H](C)C(=O)N[C@@H](Cc1c[nH]cn1)C(=O)N[C@H](Cc1ccccc1)C(=O)N[C@@H](CCCNC(=N)N)C(=O)N[C@@H](Cc1c[nH]c3ccccc13)C(=O)N2` [Chem. 87, c[c[Cys-Ala-His-D-Phe-Arg-Trp-Cys]- Ala-Ala-Ala-Ala-Trp]] (cyclo(AAAAWCAH[dF]RWC); disulfide 6-12) had a Ki of 0.17 nM. For the same compound, at human MC4R [2], the concentration for a half-maximal effect (EC50) came to 0.04 nM and the “MC1R/MC4R cAMP EC50 ratio” value is 35. This compound displayed an EC50 at human MC1R of 1.39 nM.
As for `C[C@@H]1NC(=O)[C@@H]2CSSC[C@H](NC(=O)[C@H](Cc3c[nH]c4ccccc34)NC(=O)[C@H](CCCNC(=N)N)NC(=O)[C@@H](Cc3ccccc3)NC(=O)[C@H](Cc3c[nH]cn3)NC1=O)C(=O)N[C@@H](CCCCN)C(=O)N[C@@H](CCCCN)C(=O)N[C@@H](CCCCN)C(=O)N[C@@H](CCCNC(=N)N)C(=O)N2` [Chem. 101, c[c[Cys-Ala-His-D-Phe-Arg-Trp-Cys]- Lys-Lys-Lys-Arg]] (cyclo(AH[dF]RWCKKKRC); disulfide 6-11), the Ki at human MC4R [1] (setting [3]) was determined as 0.05 nM. Also, the EC50 at human MC4R [2] (setting [4]) was 0.04 nM; on human MC1R (setting [5]), 0.19 nM. In addition, the “MC1R/MC4R cAMP EC50 ratio” value at human MC4R [2] is 5.
Regarding `C[C@@H]1NC(=O)[C@@H]2CSSC[C@H](NC(=O)[C@H](Cc3c[nH]c4ccccc34)NC(=O)[C@H](CCCNC(=N)N)NC(=O)[C@@H](Cc3ccccc3)NC(=O)[C@H](Cc3c[nH]cn3)NC1=O)C(=O)N[C@@H](CCCNC(=N)N)C(=O)N[C@@H](Cc1ccccc1)C(=O)N[C@@H](Cc1ccccc1)C(=O)N[C@@H](CC(N)=O)C(=O)N[C@@H](C)C(=O)N[C@@H](Cc1ccccc1)C(=O)N2` [Chem. 13, c[c[Cys-Ala-His-D-Phe-Arg-Trp-Cys]- Arg-Phe-Phe-Asn-Ala-Phe]] (cyclo(AFCAH[dF]RWCRFFN); disulfide 3-9), at human MC4R [1], the Ki came out at 0.26 nM. Also, at human MC4R [2], a half-maximal effect (EC50) was put at 0.1 nM and the “MC1R/MC4R cAMP EC50 ratio” value came out at 64. Moreover, at human MC1R, the 50% effective concentration (EC50) was found to be 6.36 nM.
As to `C[C@@H]1NC(=O)[C@@H]2CSSC[C@H](NC(=O)[C@H](Cc3c[nH]c4ccccc34)NC(=O)[C@H](CNC(=N)N)NC(=O)[C@@H](Cc3ccccc3)NC(=O)[C@H](Cc3c[nH]cn3)NC1=O)C(=O)N[C@@H](C)C(=O)N[C@@H](Cc1c[nH]cn1)C(=O)N[C@H](Cc1ccccc1)C(=O)N[C@@H](CNC(=N)N)C(=O)N[C@@H](Cc1c[nH]c3ccccc13)C(=O)N2` [Chem. 42, c[c[Cys-Ala-His-D-Phe-AGP-Trp- Cys]-Ala-His-D-Phe-AGP-Trp]], the inhibitory constant (Ki) on human MC4R [1] (setting [3]) is ≥ 10000 nM. The figures for the EC50 at human MC4R [2] (setting [4]) and on human MC1R (setting [5]) were > 1000 nM and > 100 nM, respectively.
As to `C[C@@H]1NC(=O)[C@H](CCC(=O)O)NC(=O)[C@H](CCC(=O)O)NC(=O)[C@H](C)NC(=O)[C@@H]2CSSC[C@H](NC(=O)[C@H](Cc3c[nH]c4ccccc34)NC1=O)C(=O)N[C@@H](C)C(=O)N[C@@H](Cc1c[nH]cn1)C(=O)N[C@H](Cc1ccccc1)C(=O)N[C@@H](CCCNC(=N)N)C(=O)N[C@@H](Cc1c[nH]c3ccccc13)C(=O)N2` [Chem. 102, c[c[Cys-Ala-His-D-Phe-Arg-Trp-Cys]- Ala-Glu-Glu-Ala-Trp]] (cyclo(AEEAWCAH[dF]RWC); disulfide 6-12), on human MC4R [1], the Ki came out at 10.1 nM. For the same compound, at human MC4R [2], the EC50 amounted to 0.49 nM and the “MC1R/MC4R cAMP EC50 ratio” value is reported as 29. This compound yielded an EC50 on human MC1R of 14.3 nM.
For the compound `C[C@@H]1NC(=O)[C@@H]2CSSC[C@H](NC(=O)[C@H](Cc3c[nH]c4ccccc34)NC(=O)[C@H](CCCNC(=N)N)NC(=O)[C@@H](Cc3ccccc3)NC(=O)[C@H](Cc3c[nH]cn3)NC1=O)C(=O)N[C@@H](C)C(=O)N[C@@H](Cc1ccc(O)cc1)C(=O)N[C@@H](Cc1ccccc1)C(=O)N[C@@H](CCCCN)C(=O)N[C@@H](Cc1c[nH]c3ccccc13)C(=O)N2` [Chem. 80, c[c[Cys-Ala-His-D-Phe-Arg-Trp-Cys]- Ala-Tyr-Phe-Lys-Trp]] (cyclo(AH[dF]RWCAYFKWC); disulfide 6-12), the Ki at human MC4R [1] (setting [3]) turned out to be 0.16 nM. Besides, the EC50 is 0.15 nM on human MC4R [2] (setting [4]) and 8.65 nM at human MC1R (setting [5]). Also, the “MC1R/MC4R cAMP EC50 ratio” value on human MC4R [2] was determined as 58.
In the case of `N=C(N)NCCC[C@@H]1NC(=O)[C@@H](Cc2ccccc2)NC(=O)[C@@H]2C[C@@H](O)CN2C(=O)[C@@H]2CSSC[C@H](NC(=O)[C@H](Cc3c[nH]c4ccccc34)NC1=O)C(=O)N1C[C@H](O)C[C@H]1C(=O)N[C@H](Cc1ccccc1)C(=O)N[C@@H](CCCNC(=N)N)C(=O)N[C@@H](Cc1c[nH]c3ccccc13)C(=O)N2` [Chem. 27, c[c[Cys-Hyp-D-Phe-Arg-Trp-Cys]- Hyp-D-Phe-Arg-Trp]] (cyclo(C[Hyp][dF]RWC[Hyp][dF]RW); disulfide 1-6), the EC50 on human MC4R [2] (setting [4]) amounted to 0.24 nM; on human MC1R (setting [5]), 50.9 nM. Moreover, the “MC1R/MC4R cAMP EC50 ratio” value at human MC4R [2] was determined as 212.
In the case of `C[C@@H]1NC(=O)[C@H](CCC(=O)O)NC(=O)[C@H](CCC(=O)O)NC(=O)[C@H](C)NC(=O)[C@@H]2CSSC[C@H](NC(=O)[C@H](Cc3c[nH]c4ccccc34)NC1=O)C(=O)N1CSC[C@H]1C(=O)N[C@@H](Cc1c[nH]cn1)C(=O)N[C@H](Cc1ccccc1)C(=O)N[C@@H](Cc1c[nH]cn1)C(=O)N[C@@H](Cc1c[nH]c3ccccc13)C(=O)N2` [Chem. 105, c[c[Cys-THAZ-His-D-Phe-His-Trp- Cys]-Ala-Glu-Glu-Ala-Trp]] (cyclo(AEEAWC[Thz]H[dF]HWC); disulfide 6-12), the “MC1R/MC4R cAMP EC50 ratio” value at human MC4R [2] was >15. Further, the EC50 on human MC1R was > 100 nM.
On to `C[C@@H]1NC(=O)[C@@H]2CSSC[C@H](NC(=O)[C@H](Cc3c[nH]c4ccccc34)NC(=O)[C@H](CCCNC(=N)N)NC(=O)[C@@H](Cc3ccccc3)NC(=O)[C@@H]3C[C@@H](O)CN3C1=O)C(=O)N[C@@H](C)C(=O)N1C[C@H](O)C[C@H]1C(=O)N[C@H](Cc1ccccc1)C(=O)N[C@@H](CCCNC(=N)N)C(=O)N[C@@H](Cc1c[nH]c3ccccc13)C(=O)N2` [Chem. 14, c[c[Cys-Ala-Hyp-D-Phe-Arg-Trp- Cys]-Ala-Hyp-D-Phe-Arg-Trp]] (cyclo(A[Hyp][dF]RWCA[Hyp][dF]RWC); disulfide 6-12), for which the “MC1R/MC4R cAMP EC50 ratio” value on human MC4R [2] is given as >3. Moreover, the EC50 at human MC1R (setting [5]) is > 10 nM.
